Experimental data reported in patent US5736522A, “Esculetin derivatives and method for manufacture thereof, use thereof, and pharmaceutical composition” (Kureha Chemical Industry Co., Ltd., priority 1993, dated 1998).

Legend:
[1] = test system: Crj: CD-1 (ICR) male mice; experiment: Acute toxicity of esculetin derivatives, mice; conditions: mouse, in vivo
Protocol: (§1) The toxicity of the esculetin derivatives of the present invention was examined. Typical examples of the present derivatives were administered orally at a dose of 2000 mg/kg (body weight) to male mice and male rats which were then observed for seven days. No deaths and no remarkable toxicity were observed. The esculetin derivatives of the present invention are extremely safe compounds (see Example 27).
(§2) The acute toxicity of the present substance was examined using Crj: CD-1 (ICR) male mice (6 weeks old) and Wistar male rats (6 weeks old). 6-(β-2-acetoamide-2-deoxy-D-glucopyranosyloxy)-7-hydroxycoumarin [Ib-2] […] No deaths were observed. […] In the experiments, two animals were used for each group.

Wistar male rats = experiment: Acute toxicity of esculetin derivatives, rats; conditions: rat, in vivo
Protocol: as §1, §2

GAG in the matrix = experiment: Suppression of reduction in GAG in the matrix caused by stimulation of interleukin-1 or the like

SMILES: CC(=O)N[C@H]1[C@H](Oc2cc3ccc(=O)oc3cc2O)O[C@H](CO)[C@@H](O)[C@@H]1O [Ib-2]
- deaths [1]: No deaths
- deaths (Wistar male rats): No deaths

SMILES: O=c1ccc2cc(O)c(O)cc2o1 [esculetin]
- suppression of the reduction in GAG in the matrix (GAG in the matrix): strongly suppress the reduction in the GAG in the matrix

SMILES: Cc1cc(=O)oc2cc(O)c(O)cc12 [4-methylesculetin]
- suppression of the reduction in GAG in the matrix (GAG in the matrix): strongly suppress the reduction in the GAG in the matrix
